Reference: patent US5444151A, “Platelet derived growth factor antagonists” (Ludwig Institute for Cancer Research, priority 1992, dated 1995)
Entries after “also recorded” stand apart in the source; their conditions may differ. Numbered stars: 1 amine (or outer) side, 2 acyl side, 3 side chain; on linkers, the order of the positions; unused ones are H or OH. Square brackets hold non-standard residues; d marks the D form. Peptide text beside a SMILES is read from it. X1 = CSc1ccc(-c2[nH]c3ccccc3c2C[C@H](N[*:1])C(=O)[*:2])cc1

Columns and labels:
[1] = system: human foreskin fibroblast cells; experiment: Inhibition of 125I-ligand internalization and degradation (TCA non-precipitatable radioactivity); format: cell-based; conditions: four hours at 37° C.
Method: To do this, confluent human foreskin fibroblast cells in 12 well dishes were washed once with 1.0 ml of Ham's F-12 medium, supplemented with 1 mg/ml BSA. As described supra, those cells to be tested later for ^125 I-PDGF-BB degradation were preincubated with PDGF-AA to down regulate α receptors. […] The mixtures were incubated for four hours at 37° C., the incubation medium was removed, and then precipitated with trichloroacetic acid at 10% final concentration. The amount of trichloroacetic acid non-precipitatable radioactivity in cell culture medium was taken as an estimate of ligand degradation--i.e., it represents ligand that had been internalized, degraded and released into the medium in the form of free ^125 I, ^[…] or low molecular weight fragments. This parameter was defined after four hours of incubation at 37° C.

PDGF-β receptor [2] = target: T1, PDGF-β receptor (Homo sapiens, UniProt P09619); experiment: Competition with 125I-PDGF-BB for binding to AG1518 fibroblasts (α receptor down regulated by PDGF-AA preincubation); conditions: AG1518 cells, competing activity
T1 construct: cultures of human foreskin fibroblast cell line AG1518; endogenous in cells; host or cells: AG1518 human foreskin fibroblasts (Human Mutant Cell Repository)
T1 sequence (P09619 33-1106): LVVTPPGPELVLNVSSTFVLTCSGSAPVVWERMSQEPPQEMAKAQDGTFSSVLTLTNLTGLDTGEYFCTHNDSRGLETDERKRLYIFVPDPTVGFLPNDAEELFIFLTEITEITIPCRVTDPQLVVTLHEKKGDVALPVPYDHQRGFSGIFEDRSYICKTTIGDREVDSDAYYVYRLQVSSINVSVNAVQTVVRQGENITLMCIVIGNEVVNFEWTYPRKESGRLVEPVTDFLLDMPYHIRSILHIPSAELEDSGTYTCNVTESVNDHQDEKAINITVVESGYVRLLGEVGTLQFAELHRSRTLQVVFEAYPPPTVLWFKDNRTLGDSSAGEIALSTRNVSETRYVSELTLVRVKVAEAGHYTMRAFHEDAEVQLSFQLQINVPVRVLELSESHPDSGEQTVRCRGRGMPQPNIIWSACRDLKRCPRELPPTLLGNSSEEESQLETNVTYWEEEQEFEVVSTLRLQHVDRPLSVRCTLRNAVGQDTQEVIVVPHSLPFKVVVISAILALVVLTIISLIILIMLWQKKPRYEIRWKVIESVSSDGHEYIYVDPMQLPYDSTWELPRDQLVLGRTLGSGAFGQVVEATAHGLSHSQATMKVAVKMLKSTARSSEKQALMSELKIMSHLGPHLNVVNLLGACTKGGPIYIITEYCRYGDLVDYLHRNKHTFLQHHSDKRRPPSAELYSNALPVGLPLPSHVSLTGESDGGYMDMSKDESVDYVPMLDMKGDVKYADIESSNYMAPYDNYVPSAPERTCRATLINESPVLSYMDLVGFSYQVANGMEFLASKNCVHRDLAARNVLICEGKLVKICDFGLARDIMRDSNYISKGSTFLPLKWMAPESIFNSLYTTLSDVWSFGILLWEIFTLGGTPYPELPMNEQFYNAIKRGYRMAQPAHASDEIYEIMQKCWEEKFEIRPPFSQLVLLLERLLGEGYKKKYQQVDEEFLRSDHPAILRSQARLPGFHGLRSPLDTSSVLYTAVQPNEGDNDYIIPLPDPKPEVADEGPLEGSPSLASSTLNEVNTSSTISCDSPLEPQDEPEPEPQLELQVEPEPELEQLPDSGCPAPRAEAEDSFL
Method: (§1) In order to test for receptor binding, cultures of human foreskin fibroblast cell line AG1518 (obtained from the Human Mutant Cell Repository), were grown to confluence in Ham's F-12 medium containing 10% newborn calf serum. Those cells which were to be used in analysis of PDGF-β receptor binding were preincubated for 60 minutes at 37° C. in 0.5 ml/well of Ham's F-12 medium, supplemented with 1 mg/ml of bovine serum albumin (BSA), and 50 ng/ml of PDGF-AA. This combination down regulates PDGF-α receptor, as per Claesson-Welsh et al., J. Biol. Chem. 264: 1742-1747 (1989).
(§2) Cells were prepared for receptor binding analyses by washing with ice cold binding buffer (phosphate buffered saline with 0.9 mM CaCl2, 0.49 mM MgSO4 and 1 mg/ml BSA). The cells were then incubated on ice for 90 minutes with different concentrations (0-100 ug/ml) of synthetic peptides (listed in Table 1, infra), in 0.5 ml of binding buffer per well. […] The labelled ligand was added and then incubated for 60 minutes at 0° C. after which the cells were washed five times with ice cold binding buffer. The washed cells were then lysed for 60 minutes at room temperature in a lysis buffer (1% Triton X-100, 10% glycerol, 20 mM Tris-HCl, pH 7.5). Solubilized radioactivity was determined in a gamma counter. Competing activities of synthetic peptides were compared to standard curves, using unlabelled ligand.
In Table 2, "+++" means <30 μM; "++" from 30-60 μM; "+" 60-150 μM; and "-", >150 μM.

EGF receptor [3] = target: T2, EGF receptor (Homo sapiens, UniProt P00533); experiment: Competition with 125I-EGF for binding to AG1518 fibroblasts
T2 construct: cultures of human foreskin fibroblast cell line AG1518; endogenous in cells; host or cells: human foreskin fibroblasts (AG1518)
T2 sequence (P00533 25-1210): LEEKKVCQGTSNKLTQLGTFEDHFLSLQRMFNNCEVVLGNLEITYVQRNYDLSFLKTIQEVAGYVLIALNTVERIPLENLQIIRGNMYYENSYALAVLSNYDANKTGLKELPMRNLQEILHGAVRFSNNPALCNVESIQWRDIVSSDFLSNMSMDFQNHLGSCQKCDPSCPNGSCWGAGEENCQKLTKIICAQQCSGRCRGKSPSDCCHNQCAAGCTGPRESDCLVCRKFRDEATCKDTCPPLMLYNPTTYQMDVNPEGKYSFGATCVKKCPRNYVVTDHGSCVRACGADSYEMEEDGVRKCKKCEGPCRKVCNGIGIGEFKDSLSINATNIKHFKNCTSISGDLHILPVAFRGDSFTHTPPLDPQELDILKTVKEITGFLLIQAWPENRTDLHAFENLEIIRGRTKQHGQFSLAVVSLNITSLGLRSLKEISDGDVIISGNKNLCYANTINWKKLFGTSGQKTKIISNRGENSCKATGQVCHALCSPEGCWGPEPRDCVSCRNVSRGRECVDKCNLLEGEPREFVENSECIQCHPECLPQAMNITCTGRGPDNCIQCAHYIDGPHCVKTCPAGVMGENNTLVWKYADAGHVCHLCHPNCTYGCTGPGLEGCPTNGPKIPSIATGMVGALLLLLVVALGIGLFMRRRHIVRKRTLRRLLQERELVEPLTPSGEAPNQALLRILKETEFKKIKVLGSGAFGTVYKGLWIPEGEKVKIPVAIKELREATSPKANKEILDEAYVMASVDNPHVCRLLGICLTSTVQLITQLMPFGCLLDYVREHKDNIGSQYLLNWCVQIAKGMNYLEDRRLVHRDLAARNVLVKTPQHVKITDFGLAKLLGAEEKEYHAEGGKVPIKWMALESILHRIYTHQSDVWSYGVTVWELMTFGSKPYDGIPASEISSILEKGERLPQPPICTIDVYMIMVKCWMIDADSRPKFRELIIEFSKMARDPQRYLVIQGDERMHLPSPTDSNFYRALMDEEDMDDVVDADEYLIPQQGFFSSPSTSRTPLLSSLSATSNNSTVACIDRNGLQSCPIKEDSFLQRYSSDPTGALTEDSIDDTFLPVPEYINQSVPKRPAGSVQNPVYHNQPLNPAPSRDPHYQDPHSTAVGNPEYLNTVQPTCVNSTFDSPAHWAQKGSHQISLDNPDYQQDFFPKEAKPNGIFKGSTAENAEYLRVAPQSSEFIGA
Method: as §1, §2

EGF receptor [4] = target: T2, EGF receptor; experiment: EGF induced receptor dimerization and autophosphorylation in intact cells; format: cell-based; conditions: EGF 300 ng/ml, intact fibroblasts
Method: (§3) Confluent human foreskin fibroblast cells were used (25 cm^2 dishes of cultures). The cells were washed twice with binding buffer, as described supra, with 1 mg/ml BSA added thereto. This was followed by 90 minutes of incubation with one of synthetic peptides 16, […], 20 and […] on ice. […] A dimerization assay was then carried out, basically following Eriksson et al., Growth Factors 6: 1-14 (1992). Essentially, receptors were cross linked for 20 minutes at room temperature in 1 mM BS^3 (Bis(sulfosuccinimidyl)suberate) in lysis buffer (0.5% Triton X-100, 0.5% deoxycholate, […], pH 7.4, 150 mM NaCl, 10 mM EDTA, 1 mM PMSF (phenylmethylsulfonyl fluoride), 1% Trasylol (aprotinin), 100 μM ortovandat, a phosphatase inhibitor). Cross linking was quenched by adding 70 mM methylammonium chloride for 10 minutes. Samples were then subjected to SDS gel electrophoresis in 4% slab gels, followed by electroblotting on to nitrocellulose membranes. The blocked membranes were incubated for two hours with affinity purified phosphotyrosine antibodies (Ek et al., J. Biol. Chem. 259: 1145-11152 (1984)), followed by three washes. Blots were then incubated for 45 minutes with peroxidase conjugated, affinity purified swine antirabbit IgG immunoglobulin. After an additional three washes, complexes were visualized using the ECL developing system.

PDGF-α or β receptors = experiment: PDGF receptor internalization and down regulation; format: cell-based, human; conditions: four hours at 37° C.; surface receptors estimated with 125I-PDGF-BB
Method: As binding of PDGF to receptors leads to receptor internalization and down regulation, investigations were carried out to determine whether the interaction of PDGF and peptide […] led to the internalization and down regulation of receptors. To test this, confluent cells, as described supra, were washed once with binding buffer at 37° C., followed by incubation with different concentrations of synthetic peptide (0.5 ml of PBS containing 1 mg/ml BSA). Following this, the cells were incubated at 37° C. for four hours, followed by washing with 1 ml of ice cold buffer consisting of 20 mM Na-acetate, 150 mM NaCl, 0.2% BSA adjusted to pH 3.7 with acetic acid. The cells were then incubated for 10 minutes on ice in buffer, followed by two washings with 1 ml binding buffer, at pH 7.4. The number of PDGF receptors on the cell surface was estimated by incubation with ^125 I-PDGF-BB (~50,000cpm) in 0.5 ml binding buffer for 60 minutes on ice, followed by washing, lysis and determination of cell bound radioactivity.

[5] = system: human foreskin fibroblasts; experiment: Ligand stimulated [3H]thymidine incorporation; format: cell-based
From the text: The possible role of peptide 16T as an antagonist for PDGF activity in vivo was investigated. Following the methodology of Betsholtz et al., J. Cell Physiol 118: 203-210 (1984), the disclosure of which is incorporated by reference, [^3 H] thymidine incorporation by human fibroblasts in the presence of various peptides was studied.

PDGF receptors = experiment: PDGF-BB induced receptor dimerization and autophosphorylation in intact cells; format: cell-based, human; conditions: PDGF-BB 300 ng/ml, intact fibroblasts
Method: as §3

PDGF-α receptor = target: T3, PDGF-α receptor (Homo sapiens, UniProt P16234); experiment: Competition with 125I-PDGF-AA for binding to AG1518 fibroblasts
T3 construct: cultures of human foreskin fibroblast cell line AG1518; endogenous in cells; host or cells: AG1518 human foreskin fibroblasts
T3 sequence (P16234 24-1089): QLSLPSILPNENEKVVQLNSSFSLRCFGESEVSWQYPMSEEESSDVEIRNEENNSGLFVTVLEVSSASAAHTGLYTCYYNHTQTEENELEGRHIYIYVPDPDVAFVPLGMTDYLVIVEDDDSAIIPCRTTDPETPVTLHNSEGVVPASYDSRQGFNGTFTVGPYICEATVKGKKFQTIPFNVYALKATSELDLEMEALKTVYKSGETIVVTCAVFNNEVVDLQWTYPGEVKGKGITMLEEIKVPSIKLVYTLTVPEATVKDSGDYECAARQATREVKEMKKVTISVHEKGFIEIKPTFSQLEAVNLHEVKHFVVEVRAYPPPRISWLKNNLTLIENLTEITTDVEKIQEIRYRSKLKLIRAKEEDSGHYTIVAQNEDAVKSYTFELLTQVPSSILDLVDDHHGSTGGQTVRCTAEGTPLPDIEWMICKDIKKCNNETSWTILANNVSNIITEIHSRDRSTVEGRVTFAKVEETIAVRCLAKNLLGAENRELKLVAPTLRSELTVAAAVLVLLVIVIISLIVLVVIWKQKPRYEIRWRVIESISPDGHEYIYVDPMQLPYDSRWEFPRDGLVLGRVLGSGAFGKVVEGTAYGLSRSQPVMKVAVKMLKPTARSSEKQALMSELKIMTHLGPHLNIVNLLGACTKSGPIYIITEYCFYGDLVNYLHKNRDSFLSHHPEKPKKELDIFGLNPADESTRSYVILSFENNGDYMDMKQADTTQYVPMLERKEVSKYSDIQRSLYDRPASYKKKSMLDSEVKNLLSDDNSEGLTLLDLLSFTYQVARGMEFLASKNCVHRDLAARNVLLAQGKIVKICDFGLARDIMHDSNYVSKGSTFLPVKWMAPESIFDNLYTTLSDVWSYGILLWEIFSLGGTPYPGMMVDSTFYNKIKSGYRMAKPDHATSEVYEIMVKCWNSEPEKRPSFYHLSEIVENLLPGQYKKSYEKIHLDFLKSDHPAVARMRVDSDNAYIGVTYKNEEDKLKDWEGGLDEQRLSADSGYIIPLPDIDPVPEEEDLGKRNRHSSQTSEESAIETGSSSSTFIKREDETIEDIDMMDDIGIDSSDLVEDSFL
Method: as §1, §2

PDGF-β receptor [6] = target: T4, PDGF-β receptor (Sus scrofa, UniProt A0A8W4FFG6); experiment: Autophosphorylation and dimerization of partially purified PDGF-β receptor; format: biochemical, porcine; conditions: nearly complete for 16T, complete for 16; about 100 ng receptor, 100 ng PDGF-BB, 40 ul
T4 construct: from Triton X-100 solubilized porcine uterus membranes and purified up to the Mono-Q chromatography step; from tissue; host or cells: porcine uterus membranes
T4 sequence (A0A8W4FFG6 32-1102): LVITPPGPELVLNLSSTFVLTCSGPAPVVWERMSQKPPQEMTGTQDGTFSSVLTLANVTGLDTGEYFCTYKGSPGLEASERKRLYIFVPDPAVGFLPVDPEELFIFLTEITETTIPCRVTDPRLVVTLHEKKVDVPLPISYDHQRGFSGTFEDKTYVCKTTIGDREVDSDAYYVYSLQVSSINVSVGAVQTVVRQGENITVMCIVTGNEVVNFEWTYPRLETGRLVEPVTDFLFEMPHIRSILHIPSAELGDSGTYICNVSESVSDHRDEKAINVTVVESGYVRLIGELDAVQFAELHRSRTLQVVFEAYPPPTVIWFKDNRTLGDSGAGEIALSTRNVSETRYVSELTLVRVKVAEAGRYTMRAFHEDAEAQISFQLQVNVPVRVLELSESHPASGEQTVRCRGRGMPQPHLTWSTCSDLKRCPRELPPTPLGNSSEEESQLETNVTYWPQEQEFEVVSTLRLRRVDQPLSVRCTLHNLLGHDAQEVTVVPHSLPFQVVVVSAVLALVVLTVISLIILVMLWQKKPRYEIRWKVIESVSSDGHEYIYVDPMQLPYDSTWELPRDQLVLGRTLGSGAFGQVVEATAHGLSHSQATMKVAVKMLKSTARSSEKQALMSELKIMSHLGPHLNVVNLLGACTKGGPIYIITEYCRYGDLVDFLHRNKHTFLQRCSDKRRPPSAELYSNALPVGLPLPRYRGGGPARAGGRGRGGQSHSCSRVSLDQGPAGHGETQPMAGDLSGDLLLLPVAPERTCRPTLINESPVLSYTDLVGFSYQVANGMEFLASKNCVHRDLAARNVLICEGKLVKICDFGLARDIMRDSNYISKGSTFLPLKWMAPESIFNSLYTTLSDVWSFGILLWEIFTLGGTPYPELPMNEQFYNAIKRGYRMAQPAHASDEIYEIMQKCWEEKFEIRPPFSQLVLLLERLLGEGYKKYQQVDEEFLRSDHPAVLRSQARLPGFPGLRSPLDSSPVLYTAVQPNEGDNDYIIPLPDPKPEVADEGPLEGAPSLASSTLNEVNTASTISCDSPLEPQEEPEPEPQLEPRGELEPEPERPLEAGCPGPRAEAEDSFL
Method: A preparation of PDGF-β receptor, from Triton X-100 solubilized porcine uterus membranes and purified up to the Mono-Q chromatography step of Ronnstrand et al., J. Biol. Chem. 262: 2929-2932 (1987), was made, and the autophosphorylation assay described therein was carried out.
Approximately 100 ng of the receptor was incubated for 5 minutes at 0° C. with peptide 16T or peptide 20, at different concentrations. […] Four ul of 150 μM [^32 P]ATP (containing 5×10^6 cpm of radioactivity) was added, followed by an additional 10 minutes of incubation at 0° C. Incorporation of radioactivity was terminated by adding 5 μl of 15 mM unlabelled ATP and 5 μl of 40 mM phenylphosphate. Samples were cross linked by incubating with 0.5 mM DSS (12.5 mM, in dimethyl sulfoxide) for 30 minutes at room temperature. The cross linking reaction was blocked by adding 50 mM methylammonium chloride, 20 mM Hepes, pH 7.4.

Effect on EGF induced autophosphorylation and dimerization (in words) (EGF receptor [4]): no effect | Down regulation of PDGF receptors (in words) (PDGF-α or β receptors): did not downregulate | 50% competition for receptor binding (PDGF-α receptor; α receptor): Forty-four | Amount of peptide giving complete inhibition of dimerization and autophosphorylation (PDGF-β receptor [6]): 5 µg
Structure (SMILES): CC[C@H](C)[C@H](NC(=O)[C@H](CCC(=O)O)NC(=O)[C@H](Cc1c(-c2ccc(SC)cc2)[nH]c2ccccc12)NC(=O)[C@@H](NC(=O)[C@H](CC(C)C)NC(=O)[C@H](Cc1ccccc1)NC(=O)[C@H](CC(N)=O)NC(=O)[C@H](C)N)C(C)C)C(=O)N[C@H](C(=O)N[C@@H](CCCNC(=N)N)C(=O)N[C@@H](CCCCN)C(=O)N[C@@H](CCCCN)C(=O)N1CCC[C@H]1C(=O)O)C(C)C [*16T, Ala Asn Phe Leu Val Xaa Glu Ile Val Arg Lys Lys Pro] (H-ANFLV[X1]EIVRKKP-OH; N-terminus and C-terminus assumed)
Inhibition of 125I-PDGF-AA degradation (in words) [1]: most effective | Inhibition of 125I-PDGF-BB degradation (in words) ([1]; α receptors down regulated): most potent | Receptor competing activity, PDGF-BB binding (in words) (PDGF-β receptor [2]): effective competitor; also recorded: far more efficient in competing with PDGF for receptor binding | Competition for binding of 125I-EGF to the EGF receptor (in words) (EGF receptor [3]): none of peptides 16, 16T, 20 and 20T compete | Effect on ligand stimulated [3H]thymidine incorporation (in words) ([5]; PDGF-AA, PDGF-BB or EGF stimulation): did inhibit PDGF-AA and PDGF-BB induced mitogenicity, but also EGF induced mitogenicity | Effect on background [3H]thymidine incorporation (in words) ([5]; no ligand): lowered background incorporation of [^3 H] thymidine dramatically | [3H]thymidine incorporation, Control ([5]; peptide present, no ligand, mean of duplicates): 46 cpm | [3H]thymidine incorporation, EGF ([5]; peptide present, stimulated with EGF, mean of duplicates): 119 cpm | [3H]thymidine incorporation, PDGF-AA ([5]; peptide present, stimulated with PDGF-AA, mean of duplicates): 90 cpm | [3H]thymidine incorporation, PDGF-BB ([5]; peptide present, stimulated with PDGF-BB, mean of duplicates): 102 cpm | Inhibition of PDGF induced autophosphorylation and dimerization (PDGF receptors): about 55% | Receptor competing activity, PDGF-AA binding (in words) (PDGF-α receptor; AG1518 cells): higher activity; also recorded: effective competitor
